The values that follow come from patent publication US12448388B2, “PRMT5 inhibitors and uses thereof” (Gilead Sciences, Inc., priority 2023, dated 2025).

By CC50 is commonly meant the concentration giving 50% cytotoxicity.

Molecules are shown by their SMILES. Like-named read-outs stand apart in the source and are kept apart here.

For this experiment, the system named is HCT116 MTAP-deleted cell lines. As to the kind of experiment: Cell viability assay (CellTiter-Glo, 7 days), HCT116 MTAP-deleted. It counts as cell-based. The note with it: Homo sapiens, HCT-116, HCT116 MTAP-deleted, class symbols, read-out: CC50. The essentials:
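Luminescent ATP readout (CellTiter-Glo) after 7 days of continuous compound exposure gives the CC50 value. Cells were plated onto pre-dispensed DMSO dilution series of the PRMT5 inhibitors and kept at 37 °C in 5% CO2.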
Background: ATP-based viability assays read luminescence as a measure of living cells.

Consider `Nc1nc2cc(F)c(C(=O)N3CCC[C@@H]4Oc5cc(C(F)(F)F)ccc5[C@@H]43)cc2n2cnc(F)c12` [Ff-621, (4-amino-3,7-difluoroimidazo[1,5-a]quinoxalin-8-yl)((4aS,9bS)-7-(trifluoromethyl)-3,4,4a,9b-tetrahydrobenzofuro[3,2-b]pyridin-1(2H)-yl)methanone], for which the half-maximal cytotoxic concentration (CC50) (cell viability assay) was 100 to 1000 nM. In the case of `Nc1nc2ccc(C(=O)N3CCO[C@@H]4Cc5cc(OC(F)(F)F)c(F)cc5[C@@H]43)cc2n2cncc12` [Ff-177, (4-aminoimidazo[1,5-a]quinoxalin-8-yl)((4aS,9aR)-6-fluoro-7-(trifluoromethoxy)-2,3,9,9a-tetrahydroindeno[2,1-b][1,4]oxazin-4(4aH)-yl)methanone], under “cell viability”, the CC50 was below 100 nM. In the case of `Cc1ncn2c1c(N)nc1cc(Cl)c(C(=O)N3CCC[C@@H]4OCc5nc(C(F)(F)F)ccc5[C@@H]43)cc12` [Ff-360, (4-amino-7-chloro-3-methylimidazo[1,5-a]quinoxalin-8-yl)((4aS,10bS)-8-(trifluoromethyl)-2,3,4,4a,6,10b-hexahydro-1H-pyrano[3,2-b:5,4-b′]dipyridin-1-yl)methanone], the 50% cytotoxic concentration (CC50) (cell viability) was below 100 nM.

With `Nc1nc2cc(F)c(C(=O)N3CCC(F)(F)C[C@@H]3c3ccc(S(F)(F)(F)(F)F)cc3)cc2n2cncc12` [Ff-405, (R)-(4-amino-7-fluoroimidazo[1,5-a]quinoxalin-8-yl)(4,4-difluoro-2-(4-(pentafluoro-λ^6-sulfaneyl)phenyl)piperidin-1-yl)methanone], the CC50 (cell viability assay) was below 100 nM. As for `Cn1c(CN(C(=O)c2cc3c(cc2F)nc(N)c2cncn23)N2CCCC2=O)nc2cc(C(F)(F)F)ccc21` [Fb-7, 4-amino-7-fluoro-N-((1-methyl-5-(trifluoromethyl)-1H-benzo[d]imidazol-2-yl)methyl)-N-(2-oxopyrrolidin-1-yl)imidazo[1,5-a]quinoxaline-8-carboxamide], the 50% cytotoxic concentration (CC50) (cell viability) is below 100 nM. As to `CC(=O)N1CC(C#Cc2ccc3c(c2)OC[C@H]3N(C)C(=O)c2ccc3nc(N)c4cncn4c3c2)C1` [Ff-529], the CC50 (cell viability assay) was in the range of 100 to 1000 nM. Regarding `Cc1ncn2c1c(N)nc1cnc(C(=O)N3CC[C@H]4C[C@@H]3c3ccc(C(F)(F)F)cc3O4)cc12` [Fg-64, (4-amino-3-methylimidazo[1,5-a]pyrido[3,4-e]pyrazin-8-yl)((2S,6R)-9-(trifluoromethyl)-3,4-dihydro-2H-2,6-methanobenzo[b][1,5]oxazocin-5(6H)-yl)methanone], the CC50 (cell viability assay) was below 100 nM. Take `Nc1nc2cc(F)c(C(=O)N3C[C@H](F)CC4Oc5cc(C(F)(F)F)ccc5[C@@H]43)cc2n2cncc12` (mixture of isomers) [Ff-112, Rac-(4-amino-7-fluoroimidazo[1,5-a]quinoxalin-8-yl)((3R,4aS,9bS)-3-fluoro-7-(trifluoromethyl)-3,4,4a,9b-tetrahydrobenzofuro[3,2-b]pyridin-1(2H)-yl)methanone]: the 50% cytotoxic concentration (CC50) (cell viability) was below 100 nM. With `C[C@H]1OC[C@@H](N(C)C(=O)c2ccc3nc(N)c4cncn4c3c2)c2ccc(C(F)(F)F)cc21` (racemic) [Ff-42, Cis-4-amino-N-methyl-N-(1-methyl-7-(trifluoromethyl)isochroman-4-yl)imidazo[1,5-a]quinoxaline-8-carboxamide], the 50% cytotoxic concentration (CC50) (cell viability) is below 100 nM. Take `Nc1nc2cc(F)c(C(=O)N(Cc3ccc(OC(F)F)cc3F)C34CC(C3)C4)cc2n2cncc12` [Ff-265, 4-amino-N-(bicyclo[1.1.1]pentan-1-yl)-N-(4-(difluoromethoxy)-2-fluorobenzyl)-7-fluoroimidazo[1,5-a]quinoxaline-8-carboxamide]: the CC50 (cell viability) is below 100 nM.

With `Nc1nc2cc(Cl)c(C(=O)N3CC[C@H]4C[C@@H]3c3ccc(Cl)cc34)cc2n2cncc12` [Ff-599, (4-amino-7-chloroimidazo[1,5-a]quinoxalin-8-yl)((1R,5S)-7-chloro-1,3,4,5-tetrahydro-2H-1,5-methanobenzo[c]azepin-2-yl)methanone], the CC50 (cell viability assay) was below 100 nM. With `C[C@H]1OC[C@@H](N(C)C(=O)c2cc3c(cc2F)nc(N)c2cncn23)c2ccc(C(F)(F)F)cc21` (racemic) [Ff-283, Rac-4-amino-7-fluoro-N-methyl-N-((1R,4S)-1-methyl-7-(trifluoromethyl)isochroman-4-yl)imidazo[1,5-a]quinoxaline-8-carboxamide], the CC50 (cell viability) was below 100 nM. As to `Cc1ncc2c(N)nc3cnc(C(=O)N4CCC[C@@H]5Oc6cc(OC(F)(F)F)c(F)cc6[C@@H]54)cc3n12` [Ff-376, (4-amino-1-methylimidazo[1,5-a]pyrido[3,4-e]pyrazin-8-yl)((4aS,9bS)-8-fluoro-7-(trifluoromethoxy)-3,4,4a,9b-tetrahydrobenzofuro[3,2-b]pyridin-1(2H)-yl)methanone], under “cell viability assay”, the CC50 is below 100 nM. Turning to `Nc1nc2cc(F)c(C(=O)N3CCC[C@@H]4Oc5c(ccc(Cl)c5F)[C@@H]43)cc2n2cncc12` (racemic) [Ff-335, Rac-((4-amino-7-fluoroimidazo[1,5-a]quinoxalin-8-yl)((4aS,9bS)-7-chloro-6-fluoro-3,4,4a,9b-tetrahydrobenzofuro[3,2-b]pyridin-1(2H)-yl)methanone], the CC50 (cell viability) is below 100 nM. On to `CC(C)N(Cc1ccc(-c2cnn(C(F)(F)F)c2)cc1F)C(=O)c1ccc2nc(N)c3cncn3c2c1` [Ff-50, 4-amino-N-(2-fluoro-4-(1-(trifluoromethyl)-1H-pyrazol-4-yl)benzyl)-N-isopropylimidazo[1,5-a]quinoxaline-8-carboxamide], for which, where the note is “cell viability”, the CC50 is below 100 nM. For `Cc1ncn2c1c(N)nc1ccc(C(=O)N3C[C@@H](F)C[C@@H]4Oc5cc(OC(F)(F)F)ccc5[C@@H]43)cc12` [Fg-47, (4-amino-3-methylimidazo[1,5-a]quinoxalin-8-yl)((3S,4aS,9bS)-3-fluoro-7-(trifluoromethoxy)-3,4,4a,9b-tetrahydrobenzofuro[3,2-b]pyridin-1(2H)-yl)methanone], under “cell viability assay”, the half-maximal cytotoxic concentration (CC50) is below 100 nM. As for `C[C@H]1CN(C(=O)c2cc3c(cc2F)nc(N)c2cncn23)[C@H]2c3ccc(Br)c(F)c3C[C@H]2O1` (single isomer, unassigned) [Ff-164], the CC50 (cell viability) was below 100 nM. As to `Nc1nc2ccc(C(=O)N(Cc3ccc(C(F)(F)F)cn3)C34COC(C3)C4)cc2n2cncc12` [Ff-267, 4-amino-N-(2-oxabicyclo[2.1.1]hexan-4-yl)-N-((5-(trifluoromethyl)pyridin-2-yl)methyl)imidazo[1,5-a]quinoxaline-8-carboxamide], the cytotoxic concentration (CC50) (cell viability) fell in the range of 100 to 1000 nM.

Take `C[C@H](C(=O)N(C)C)N(Cc1ccc(C(F)(F)F)cc1F)C(=O)c1cc2c(cc1F)nc(N)c1cncn12` [Ff-69, 4-amino-N-[(1R)-2-(dimethylamino)-1-methyl-2-oxo-ethyl]-7-fluoro-N-[[2-fluoro-4-(trifluoromethyl)phenyl]methyl]imidazo[1,5-a]quinoxaline-8-carboxamide]: the CC50 (cell viability) was 100 to 1000 nM. The same measure, in the same setting: then `Nc1nc2cc(F)c(C(=O)N3CCC[C@@H]4Oc5cc(OC(F)(F)F)c(F)cc5[C@@H]43)cc2n2cncc12` (racemic) [Ff-333, Rac-(4-amino-7-fluoroimidazo[1,5-a]quinoxalin-8-yl)((4aS,9bS)-8-fluoro-7-(trifluoromethoxy)-3,4,4a,9b-tetrahydrobenzofuro[3,2-b]pyridin-1(2H)-yl)methanone], with below 100 nM. Turning to `C[C@H]1CN(C(=O)c2cc3c(cc2F)nc(N)c2cncn23)[C@H]2c3ccc(C#N)cc3C[C@H]2O1` [Ff-578, (2S,4aS,9aR)-4-(4-amino-7-fluoroimidazo[1,5-a]quinoxaline-8-carbonyl)-2-methyl-2,3,4,4a,9,9a-hexahydroindeno[2,1-b][1,4]oxazine-7-carbonitrile], the CC50 (cell viability assay) was below 100 nM. Take `Nc1nc2ccc(C(=O)N3C[C@@H](F)C[C@@H]4Oc5cc(C(F)(F)F)ccc5[C@@H]43)cc2n2cncc12` [Ff-649, (4-aminoimidazo[1,5-a]quinoxalin-8-yl)((3S,4aS,9bS)-3-fluoro-7-(trifluoromethyl)-3,4,4a,9b-tetrahydrobenzofuro[3,2-b]pyridin-1(2H)-yl)methanone]: the CC50 (cell viability assay) is below 100 nM.

Take `C[C@H]1CCN(C(=O)c2cc3c(cc2F)nc(N)c2cncn23)[C@@H](c2ccc(C(F)(F)F)cc2)C1` (racemic) [Ff-241, Rac-(4-amino-7-fluoroimidazo[1,5-a]quinoxalin-8-yl)((2R,4S)-4-methyl-2-(4-(trifluoromethyl)phenyl)piperidin-1-yl)methanone]: the 50% cytotoxic concentration (CC50) (cell viability) lay in the range of 100 to 1000 nM.

On to `Cc1ncc2c(N)nc3cc(F)c(C(=O)N(C)[C@@H]4COc5cc(OC(F)(F)F)ccc54)cc3n12` [Ff-564, (S)-4-amino-7-fluoro-N,1-dimethyl-N-(6-(trifluoromethoxy)-2,3-dihydrobenzofuran-3-yl)imidazo[1,5-a]quinoxaline-8-carboxamide], for which the CC50 (cell viability assay) was below 100 nM. With `CN(C(=O)c1cc2c(cc1C1CC1)nc(N)c1cncn12)[C@@H]1COc2cc(C(F)(F)F)ccc21` [Ff-614, (S)-4-amino-7-cyclopropyl-N-methyl-N-(6-(trifluoromethyl)-2,3-dihydrobenzofuran-3-yl)imidazo[1,5-a]quinoxaline-8-carboxamide], the CC50 (cell viability assay) was below 100 nM. Turning to `CN(C(=O)c1ccc2nc(N)c3cncn3c2c1)[C@@H](c1ccc(C(F)(F)F)cc1F)C(F)F` [Fb-14, (S)-4-amino-N-(2,2-difluoro-1-(2-fluoro-4-(trifluoromethyl)phenyl)ethyl)-N-methylimidazo[1,5-a]quinoxaline-8-carboxamide], the CC50 (cell viability) is below 100 nM.

For `CN(C(=O)c1cc2c(cc1Cl)nc(N)c1cncn12)[C@@H]1COc2cc(OC(F)(F)F)ccc21` [Ff-562, (S)-4-amino-7-chloro-N-methyl-N-(6-(trifluoromethoxy)-2,3-dihydrobenzofuran-3-yl)imidazo[1,5-a]quinoxaline-8-carboxamide], the CC50 (cell viability assay) was below 100 nM. Turning to `CN(C(=O)c1cc2c(cc1F)nc(N)c1c(Br)ncn12)[C@@H]1COc2cc(C(F)(F)F)ccc21` (single isomer, unassigned) [Ff-494], the cytotoxic concentration (CC50) (cell viability assay) fell in the range of 100 to 1000 nM.

For the compound `CN(C(=O)c1cc2c(cc1F)nc(N)c1cncn12)[C@@H]1COc2c1ccc(Cl)c2Cl` (single isomer, unassigned) [Ff-606], where the note is “cell viability assay”, the CC50 lay in the range of 100 to 1000 nM.
